This is an account of results in patent publication US20220340650A1, “COMBINATION THERAPY WITH CGRP ANTAGONISTS” (Allergan Pharmaceuticals International Limited, priority 2019, published 2022).

Entries after “also recorded” stand apart in the source; their conditions may differ.

Data set [1] can be described thus: Phase 1b trial NCT04179474, plasma ubrogepant pharmacokinetics, erenumab arm (Part 1). It counts as in vivo, human. Conditions: for half-life: read-out: t1/2, mean (converted). Here is the method:
(§1) A two-part, multi-center, open-label, phase 1b trial (NCT04179474) in 40 adults (aged 18-50 years) diagnosed with migraine was conducted to evaluate the impact of erenumab or galcanezumab on the pharmacokinetics (PK), safety, and tolerability of ubrogepant in patients with migraine.
(§2) This open-label, multicenter trial enrolled adults diagnosed for greater than or equal to one year with migraine not on preventive treatment. Participants were assigned to an erenumab arm (Part 1) or a galcanezumab arm (Part 2). In each arm, participants received ubrogepant 100 mg on day 1 (without an antibody). On day 8, participants received the assigned monoclonal antibody: single subcutaneous (SC) erenumab 140 mg injection (Part 1) or galcanezumab 240 mg (2 SC 120 mg injections) (Part 2). Ubrogepant 100 mg was administered once daily on days 12-15. Participants were followed for 30 days.
(§3) Of 40 enrolled participants, 20 were included in part 1 (n=20 ubrogepant, n=19 erenumab, and n=19 co-administered ubrogepant and erenumab) and 20 were included in part 2 (n=20 ubrogepant, n=20 galcanezumab, and n=19 co-administered ubrogepant and galcanezumab).
(§4) PK parameters, derived from plasma ubrogepant concentrations in blood collected at prespecified time points over 24 hours post-dose on days 1 and 12, included area under the curve from time 0 to time t (AUC0-t) or to infinity (AUC0-∞); peak plasma concentration (Cmax), time to Cmax (Tmax); and apparent terminal half life (t1/2). Safety outcomes included incidence of adverse events (AEs; daily and through follow-up), and laboratory values, vital signs, and electrocardiogram (ECG) results (at prespecified timepoints pre- and post-dose). Log-transformed Cmax, AUC0-t, and […] , for ubrogepant with and without erenumab or galcanezumab with 90% CI were constructed.

A short description of data set [2]: Phase 1b trial NCT04179474, safety and tolerability (adverse events), erenumab arm (Part 1). Also noted: species or system human. To be noted: in vivo. As to the method: as §1, §2, §3, §4
The nature of data set [3]: Phase 1b trial NCT04179474, plasma ubrogepant pharmacokinetics, galcanezumab arm (Part 2). It counts as in vivo, human. To be noted: for AUC(0-t): 100 mg. Here is the method: as §1, §2
Of 40 enrolled participants, 20 were included in part 1 (n=20 ubrogepant, n=19 erenumab, and n=19 co-administered ubrogepant and erenumab) and 20 were included in part 2 (n=20 ubrogepant, n=20 galcanezumab, […]).
as §4

A short description of data set [4]: Phase 1b trial NCT04179474, safety and tolerability (adverse events), galcanezumab arm (Part 2). The arrangement: species or system human. Conditions: in vivo. Here is the method:
as §1, §2, §3, §4

For a further data set, the system named is CYP enzymes. Conditions: general statement, no test described; cited from earlier work.
Setting [5] is: erenumab arm, ubrogepant 100 mg alone, day 1, n = 20.
Where [6] appears, read: galcanezumab arm, ubrogepant 100 mg alone, day 1, n = 20.

One may read the Cmax as the maximum level reached in the sampled fluid or tissue. The term Tmax denotes the time from dosing to the highest level. In the case of `C[C@@H]1[C@H](c2ccccc2)C[C@H](NC(=O)c2cnc3c(c2)C[C@@]2(C3)C(=O)Nc3ncccc32)C(=O)N1CC(F)(F)F` [Ubrogepant, ubrogepant], in data set [1] (setting [5]), the “CL/F, mean” value turned out to be 57.4 L/h and the “t1/2, mean” value is 4.6 h. Besides, in data set [1] (human, plasma, oral, erenumab arm, ubrogepant 100 mg alone, day 1, read-out: AUC0-t, geometric LSM), the AUC(0-t) is 1780 ng·h/mL. Moreover, the AUC(0-inf) in data set [1] (human, plasma, oral, erenumab arm, ubrogepant 100 mg alone, day 1, read-out: AUC0-∞, geometric LSM) worked out at 1810 ng·h/mL. Moreover, the Cmax in data set [1] (human, plasma, oral, erenumab arm, ubrogepant 100 mg alone, day 1, read-out: Cmax, geometric LSM) worked out at 431 ng/mL. For the same molecule, the AUC(0-t) in data set [1] (human, plasma, other: extravascular administration, erenumab arm, ubrogepant 100 mg alone, day 1, n = 20, read-out: AUC0-t, mean) was determined as 1840 ng·h/mL. Also, the AUC(0-inf) in data set [1] (human, plasma, other: extravascular administration, erenumab arm, ubrogepant 100 mg alone, day 1, n = 20, read-out: AUC0-∞, mean) was determined as 1880 ng·h/mL. For the same molecule, in data set [1] (human, plasma, other: extravascular administration, erenumab arm, ubrogepant 100 mg alone, day 1, n = 20, read-out: Cmax, mean), the peak concentration (Cmax) was 459 ng/mL. The Vd/F in data set [1] (human, plasma, other: extravascular administration, erenumab arm, ubrogepant 100 mg alone, day 1, n = 20, read-out: VZ/F, mean) turned out to be 437 L. For the same molecule, the half-life in data set [1] (human, plasma, other: extravascular administration, erenumab arm, ubrogepant 100 mg alone, day 1, n = 20) is 5.3 h. Moreover, the half-life in data set [1] (human, plasma, erenumab arm, ubrogepant 100 mg day 12, after SC erenumab 140 mg on day 8, n = 19) was 5.3 h. Moreover, the time to peak (Tmax) in data set [1] (human, plasma, erenumab arm, ubrogepant 100 mg day 12, after SC erenumab 140 mg on day 8, n = 19, read-out: tmax, median) stood at 1.5 h. Also, the “change in ubrogepant PK (Cmax, AUC0-t, AUC0-∞) after coadministration with erenumab versus alone” value in data set [1] (ubrogepant 100 mg, erenumab 140 mg SC) is on record as “no significant change; also recorded: minimally elevated; also recorded: unchanged”. Further, in data set [2] (human), the “Abdominal Pain, participants” value was 0 participants; the “Constipation, participants” value is 0 participants; the “Flatulence, participants” value is 0 participants; the “Headache, participants” value is reported as 1 participants. For the same molecule, in data set [2] (human), the “Headache, participants (%)” value is listed as “(5.0) %”; the “Nasopharyngitis, participants” value is 1 participants; the “Nasopharyngitis, participants (%)” value was “(5.0) %”; the “Nausea, participants” value is reported as 0 participants. Moreover, in data set [2] (human), the “Somnolence, participants” value worked out at 1 participants; the “Somnolence, participants (%)” value is recorded as “(5.0) %”; the “TEAEs, participants (%)” value is given as “(35.0) %”; the “Treatment Related AEs, participants (%)” value is on record as “(10.0) %”. Moreover, the “Upper Abdominal Pain, participants” value in data set [2] (human) is 0 participants. The “safety concerns on co-administration” value in data set [2] is “no safety concerns were identified”. In addition, in data set [3] (setting [6]), the “AUC0-∞, mean” value is 1732.2 ng·h/mL; the “CL/F, mean” value amounted to 72.9 L/h; the “Cmax, mean” value was 415.3 ng/mL; the “t1/2, mean” value was determined as 4.6 h. In data set [3] (human, plasma, oral, galcanezumab arm, ubrogepant 100 mg alone, day 1, n = 20, read-out: AUC0-t, mean), the AUC(0-t) amounted to 1700 ng·h/mL. Besides, the AUC(0-t) in data set [3] (human, plasma, oral, galcanezumab arm, ubrogepant 100 mg alone, day 1, read-out: AUC0-t, geometric LSM) worked out at 1510 ng·h/mL. Moreover, the Vd/F in data set [3] (human, plasma, oral, galcanezumab arm, ubrogepant 100 mg alone, day 1, n = 20, read-out: VZ/F, mean) stood at 569 L. The AUC(0-inf) in data set [3] (human, plasma, oral, galcanezumab arm, ubrogepant 100 mg alone, day 1, read-out: AUC0-∞, geometric LSM) stood at 1540 ng·h/mL. The Cmax in data set [3] (human, plasma, oral, galcanezumab arm, ubrogepant 100 mg alone, day 1, read-out: Cmax, geometric LSM) was found to be 359 ng/mL. Moreover, the Tmax in data set [3] (human, plasma, oral, galcanezumab arm, ubrogepant 100 mg day 12, after SC galcanezumab 240 mg on day 8, n = 20) was 1.5 h. The half-life in data set [3] (human, plasma, oral, galcanezumab arm, ubrogepant 100 mg day 12, after SC galcanezumab 240 mg on day 8, n = 20, read-out: t1/2, mean (converted)) is 5 h. In data set [3] (ubrogepant 100 mg, galcanezumab 240 mg SC), the “change in ubrogepant PK (Cmax, AUC0-t, AUC0-28) after coadministration with galcanezumab versus alone” value is given as “no significant change; also recorded: unchanged”. Also, in data set [3] (vs ubrogepant alone), the “change in ubrogepant Cmax with galcanezumab coadministration” value is on record as “unchanged”, the “increase in ubrogepant AUC0-t with galcanezumab coadministration” value is listed as 5% and the “increase in ubrogepant AUC0-∞ with galcanezumab coadministration” value was 5%. Further, in data set [4] (human), the “Abdominal Discomfort, participants” value was found to be 0 participants; the “Dizziness, participants” value amounted to 0 participants; the “Headache, participants” value amounted to 0 participants; the “Hiccups, participants” value was 0 participants. Besides, in data set [4] (human), the “TEAEs, participants (%)” value is listed as “(10.0) %” and the “Upper Abdominal Pain, participants” value stood at 0 participants. Also, the “safety concerns on co-administration” value in data set [4] is given as “no safety concerns were identified”.

B1: galcanezumab (antibody, chains of the INN, looked up, V domains shown)
VH: QVQLVQSGAEVKKPGSSVKVSCKASGYTFGNYWMQWVRQAPGQGLEWMGAIYEGTGKTVYIQKFADRVTITADKSTSTAYMELSSLRSEDTAVYYCARLSDYVSGFGYWGQGTTVTVSS
VL: DIQMTQSPSSLSASVGDRVTITCRASKDISKYLNWYQQKPGKAPKLLIYYTSGYHSGVPSRFSGSGSGTDFTLTISSLQPEDFATYYCQQGDALPPTFGGGTKVEIK
notes: long-acting CGRP antagonist antibody that targets the CGRP ligand
B1: in the data set with CYP enzymes, the “metabolism by CYP enzymes” value is on record as “not metabolized by CYP enzymes”. In data set [4], the “Abdominal Discomfort, participants” value turned out to be 0 participants; the “Dizziness, participants” value came to 0 participants; the “Headache, participants” value was 3 participants; the “Headache, participants (%)” value is “(15.0) %”. In data set [4], the “Hiccups, participants” value is given as 1 participants; the “Hiccups, participants (%)” value was “(5.0) %”; the “TEAEs, participants (%)” value is “(15.0) %”; the “Treatment-related AEs, participants (%)” value is “(15.0) %”. The “Upper Abdominal Pain, participants” value in data set [4] was 0 participants.

B2: erenumab (antibody, chains of the INN, looked up, V domains shown)
VH: QVQLVESGGGVVQPGRSLRLSCAASGFTFSSFGMHWVRQAPGKGLEWVAVISFDGSIKYSVDSVKGRFTISRDNSKNTLFLQMNSLRAEDTAVYYCARDRLNYYDSSGYYHYKYYGMAVWGQGTTVTVSS
VL: QSVLTQPPSVSAAPGQKVTISCSGSSSNIGNNYVSWYQQLPGTAPKLLIYDNNKRPSGIPDRFSGSKSGTSTTLGITGLQTGDEADYYCGTWDSRLSAVVFGGGTKLTVL
B2: in the data set on CYP enzymes, the “metabolism by CYP enzymes” value is “not metabolized by CYP enzymes”. In addition, in data set [2], the “Abdominal Pain, participants” value was 0 participants; the “Constipation, participants” value is 0 participants; the “Flatulence, participants” value is listed as 1 participants; the “Flatulence, participants (%)” value is on record as “(5.3) %”. In addition, in data set [2], the “Headache, participants” value is recorded as 6 participants; the “Headache, participants (%)” value was “(31.6) %”; the “Nasopharyngitis, participants” value was 0 participants; the “Nausea, participants” value amounted to 0 participants. Moreover, in data set [2], the “Somnolence, participants” value is recorded as 0 participants; the “TEAEs, participants (%)” value is reported as “(42.1) %”; the “Treatment Related AEs, participants (%)” value is “(36.8) %”; the “Upper Abdominal Pain, participants” value is 0 participants.
